Some test systems named below: 786-0; ACHN; COLO 205; HCT-15; Hs-578T; IGROV-1; M14; MDA-MB-231; MDA-MB-435; MOLT-4; Malme-3M; NCI-H522; NCI/ADR-RES; OVCAR-4; SF-295; SF-539; SR; UACC-62; SNB-75; NCI-H226.
What all share (assay): inhibition of tumour cell growth, NCI panel, 48 h

Each structure is given as a SMILES string.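 Compound exposure: 48 hours, 5 concentrations, 96-well plates. Here, GI50 denotes the concentration required for 50% inhibition of growth.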 Active and inactive are the calls of the source. No stated cut-off is given here; in the data, active = GI50 up to about 1.1 µM and inactive = higher.

For `CC(=O)c1c(C)[n+]([O-])c2cc(Cl)c(Cl)cc2[n+]1[O-]`, the GI50 was 27.5 µM (inactive) in the test on 786-0; 17.8 µM (inactive) in the test on ACHN; 15.7 µM (inactive) in the test on COLO 205; 12.2 µM in the test on HCT-15; 20.7 µM (inactive) in the test on Hs-578T; 4.98 µM (inactive) in the test with IGROV-1. The GI50 in the test with M14 was 24.6 µM (inactive); in the test with MDA-MB-231, 22.1 µM (inactive); in the test on MDA-MB-435, 21.3 µM (inactive); with MOLT-4, 8.22 µM (inactive); in the test on Malme-3M, 6.58 µM (inactive); in the test with NCI-H522, 12.6 µM (inactive). In addition, the GI50 in the test with NCI/ADR-RES is 16.7 µM (inactive); in the test on OVCAR-4, 15.6 µM (inactive); in the test with SF-295, 26.5 µM (inactive); with SF-539 it was 24.7 µM (inactive); in the test with SR, 6.75 µM (inactive); in the test on UACC-62, 18.4 µM (inactive).
As for `O=C1CC(Br)c2c(Cl)sc(Cl)c21` (stereo not given), the GI50 in the test on 786-0 is 3.04 µM (inactive); in the test with ACHN, 12.2 µM (inactive); in the test on COLO 205, 12.1 µM (inactive); in the test with HCT-15, 8.07 µM; in the test on Hs-578T it was 16.5 µM (inactive); in the test with IGROV-1, 11.4 µM (inactive). Further, the GI50 with M14 is 9.75 µM (inactive); with MDA-MB-231, 9.98 µM (inactive); with MDA-MB-435 it was 2.39 µM (inactive); in the test on MOLT-4, 1.94 µM (inactive); in the test with Malme-3M, 12.1 µM (inactive); in the test on NCI-H522, 17 µM (inactive). Also, the GI50 is 24 µM (inactive) in the test with NCI/ADR-RES; 16.4 µM (inactive) with SF-295; 8.3 µM (inactive) with SF-539; 15.2 µM (inactive) with SNB-75; 3.89 µM (inactive) with SR; 11.8 µM (inactive) in the test on UACC-62.
With `CC1(C)C=[N+]([O-])C(C)(C)N1`, the GI50 is > 100 µM (inactive) in the test with 786-0; > 100 µM (inactive) in the test with ACHN; > 100 µM (inactive) in the test on COLO 205; over 100 µM in the test with HCT-15; > 100 µM (inactive) with Hs-578T; > 100 µM (inactive) in the test with IGROV-1. Also, the GI50 in the test on M14, in the test on MDA-MB-231, with MDA-MB-435, with MOLT-4, in the test on Malme-3M and in the test with NCI-H226 was > 100 µM (inactive) in each case. Moreover, the GI50 in the test with NCI/ADR-RES, with OVCAR-4, in the test with SF-295, in the test on SF-539, in the test with SNB-75 and in the test on SR was > 100 µM (inactive) each time. For the same compound, the GI50 in the test on UACC-62 is > 100 µM (inactive).
As to `NC(Cc1ccc2nc3c4ccccc4c(=O)cc-3oc2c1)C(=O)O` (stereo not given), the GI50 was > 100 µM (inactive) with 786-0; > 100 µM (inactive) in the test on ACHN; 20.9 µM (inactive) with COLO 205; over 100 µM in the test on HCT-15; 56.1 µM (inactive) in the test with Hs-578T; > 100 µM (inactive) in the test with IGROV-1. Also, the GI50 with M14 was 25.3 µM (inactive); with MDA-MB-231 it was > 100 µM (inactive); with MDA-MB-435, 18.2 µM (inactive); with Malme-3M it was 14.8 µM (inactive); in the test on NCI/ADR-RES it was > 100 µM (inactive); in the test on OVCAR-4, > 100 µM (inactive). Further, the GI50 with SF-295 is > 100 µM (inactive); with SF-539, > 100 µM (inactive); in the test on SNB-75, 65.8 µM (inactive); in the test with SR, > 100 µM (inactive); in the test with UACC-62 it was 32.7 µM (inactive).
For the compound `O=C(c1ccc(O)c([N+](=O)[O-])c1)c1ccc(O)c([N+](=O)[O-])c1`, the GI50 in the test with 786-0 is > 100 µM (inactive); with ACHN, > 100 µM (inactive); in the test with COLO 205, > 100 µM (inactive); with HCT-15, over 100 µM; in the test with Hs-578T it was 46.3 µM (inactive); in the test with IGROV-1 it was > 100 µM (inactive). Further, the GI50 in the test on M14 is > 100 µM (inactive); in the test with MDA-MB-231, > 100 µM (inactive); in the test on MDA-MB-435, 20.8 µM (inactive); in the test with Malme-3M, 37 µM (inactive); in the test with NCI-H226, > 100 µM (inactive); in the test on NCI-H522 it was > 100 µM (inactive). The GI50 with NCI/ADR-RES was 43.6 µM (inactive); with OVCAR-4, > 100 µM (inactive); with SF-295, 46.3 µM (inactive); with SF-539, 53.5 µM (inactive); in the test with SNB-75, 28.7 µM (inactive); in the test with UACC-62 it was 37.1 µM (inactive).
As for `CC1(c2cccc(C(F)(F)F)c2)CC(c2cccc(C(F)(F)F)c2)=C(C#N)C(=C(C#N)C#N)N1` (stereo not given), the GI50 with 786-0 is 17 µM (inactive); with ACHN, 17.2 µM (inactive); in the test with COLO 205, 14.6 µM (inactive); with HCT-15, 16.4 µM; with Hs-578T it was 17.3 µM (inactive); in the test with IGROV-1, 16.6 µM (inactive). Further, the GI50 with M14 is 20.2 µM (inactive); in the test with MDA-MB-231, 23 µM (inactive); with MDA-MB-435 it was 18.1 µM (inactive); in the test on MOLT-4 it was 19.2 µM (inactive); in the test on Malme-3M it was 17.1 µM (inactive); in the test with NCI-H226, 18.2 µM (inactive). The GI50 is 19.5 µM (inactive) in the test on NCI/ADR-RES; 16 µM (inactive) with OVCAR-4; 16.6 µM (inactive) with SF-295; 17.4 µM (inactive) with SF-539; 19.3 µM (inactive) in the test on SNB-75; 12.6 µM (inactive) in the test on SR. Also, the GI50 with UACC-62 is 16.7 µM (inactive).
Consider `CCn1cc(C(=O)O)c(=O)c2cc3c(cc21)S(=O)(=O)CC3`, for which the GI50 with 786-0 was > 100 µM (inactive); in the test with ACHN, > 100 µM (inactive); with COLO 205, > 100 µM (inactive); with HCT-15 it was over 100 µM; with Hs-578T it was > 100 µM (inactive); with IGROV-1, > 100 µM (inactive). The GI50 with M14, with MDA-MB-231, in the test with MDA-MB-435, in the test on MOLT-4, in the test on Malme-3M and with NCI-H226 was > 100 µM (inactive) throughout. Moreover, the GI50 in the test with NCI-H522, in the test with NCI/ADR-RES, with OVCAR-4, in the test with SF-295, in the test with SF-539 and with SNB-75 was > 100 µM (inactive) throughout. Further, in the test on UACC-62, the GI50 is > 100 µM (inactive).
As to `CCOC(=O)C(O)Cc1cnc2ccccc2n1` (stereo not given), the GI50 in the test with 786-0 was > 100 µM (inactive); in the test with ACHN it was > 100 µM (inactive); with COLO 205, > 100 µM (inactive); in the test on HCT-15, over 100 µM; in the test with Hs-578T, > 100 µM (inactive); in the test with IGROV-1, 94.2 µM (inactive). Moreover, the GI50 in the test with M14 was > 100 µM (inactive); in the test with MDA-MB-231, > 100 µM (inactive); in the test on MDA-MB-435, > 100 µM (inactive); in the test on MOLT-4, > 100 µM (inactive); in the test on Malme-3M, > 100 µM (inactive); in the test on NCI-H522 it was 79.3 µM (inactive). In addition, the GI50 in the test with NCI/ADR-RES, in the test on OVCAR-4, with SF-539, with SNB-75, in the test on SR and in the test on UACC-62 was > 100 µM (inactive) throughout.
Turning to `C=C1C(=O)O[C@H]2C1C[C@H](O)/C(C)=C/CC[C@@]1(C)O[C@H]21` (stereo not given in full), the GI50 is 16.9 µM (inactive) in the test on 786-0; 8.38 µM (inactive) with ACHN; 0.782 µM (active) with COLO 205; 12.2 µM in the test on HCT-15; 23.6 µM (inactive) in the test on Hs-578T; 14.8 µM (inactive) with IGROV-1. In addition, the GI50 with M14 was 10.4 µM (inactive); with MDA-MB-231, 18.9 µM (inactive); with MDA-MB-435 it was 17.8 µM (inactive); in the test with MOLT-4, 2.59 µM (inactive); with Malme-3M, 6.14 µM (inactive); with NCI-H522, 1.69 µM (inactive). Also, the GI50 in the test on NCI/ADR-RES was 14.6 µM (inactive); with OVCAR-4, 14.1 µM (inactive); in the test with SF-295, 31.5 µM (inactive); in the test on SNB-75, 32.3 µM (inactive); in the test on SR, 6.04 µM (inactive); in the test on UACC-62, 10.9 µM (inactive).
Consider `CC(C)[C@@H]1NC(=O)[C@H]2N=C(O[C@@H]2C)[C@@H]2CCCN2C(=O)[C@H](Cc2ccccc2)NC(=O)[C@@H]2CSC(=N2)[C@@H](Cc2ccccc2)NC(=O)[C@@H]2CSC1=N2`, for which the GI50 with 786-0 is > 50 µM (inactive); with ACHN, > 50 µM (inactive); in the test with COLO 205, 24.7 µM (inactive); in the test on HCT-15 it was 33.2 µM; in the test on Hs-578T, 32.8 µM (inactive); in the test on IGROV-1, > 50 µM (inactive). Also, the GI50 is > 50 µM (inactive) with M14; > 50 µM (inactive) in the test on MDA-MB-231; 36.4 µM (inactive) in the test on MDA-MB-435; 26.8 µM (inactive) in the test with MOLT-4; > 50 µM (inactive) with Malme-3M; 38.5 µM (inactive) in the test on NCI-H226. Besides, the GI50 was 29.1 µM (inactive) in the test with NCI-H522; > 50 µM (inactive) in the test with NCI/ADR-RES; 19.8 µM (inactive) in the test on OVCAR-4; 34.6 µM (inactive) in the test with SF-295; 17.5 µM (inactive) with SF-539; 0.216 µM (active) in the test on SNB-75. Besides, in the test with UACC-62, the GI50 is > 50 µM (inactive).
`OB1OCc2ccccc21` [BENZOXABOROLE]: the GI50 with 786-0 was 39.7 µM (inactive); in the test on COLO 205 it was 33.7 µM (inactive); in the test on HCT-15, 24.7 µM; in the test on Hs-578T it was 62.1 µM (inactive); with IGROV-1, 35.2 µM (inactive); in the test on M14, 55.3 µM (inactive). The GI50 with MDA-MB-231 was 77.1 µM (inactive); in the test on MDA-MB-435, 35.9 µM (inactive); in the test on MOLT-4, 69.8 µM (inactive); with Malme-3M it was > 100 µM (inactive); with NCI-H226 it was 39.5 µM (inactive); in the test on NCI/ADR-RES, 22.3 µM (inactive). The GI50 with OVCAR-4 is 32.4 µM (inactive); in the test with SF-295 it was 12.1 µM (inactive); in the test on SF-539, 25.1 µM (inactive); with SR, 52.7 µM (inactive); in the test on UACC-62, 35.9 µM (inactive).

Values taken from ChEMBL document CHEMBL1201862, “PubChem BioAssay data set” (2004).
